Test results as given in ChEMBL document CHEMBL1201862, “PubChem BioAssay data set” (2004).
The source made the active and inactive calls.

Experiments:
[1] = biological target: Peroxisome proliferator-activated receptor gamma/Nuclear receptor coactivator 2 (Homo sapiens, UniProt P37231); assay type: functional;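 further: agonist potency for raising coactivator recruitment to the receptor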
[2] = biological target: Peroxisome proliferator-activated receptor gamma/Nuclear receptor coactivator 3 (Homo sapiens, UniProt P37231); assay type: functional;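 further: agonist potency for raising coactivator recruitment to the receptor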
[3] = biological target: Peroxisome proliferator-activated receptor gamma/Nuclear receptor coactivator 1 (Homo sapiens, UniProt P37231); assay type: functional;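 further: agonist potency as compounds enhance coactivator SRC-1 recruitment to PPARgamma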
[4] = biological target: Voltage-dependent T-type calcium channel subunit alpha-1H (Homo sapiens, UniProt O95180); assay type: functional;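 further: channel activity triggered by adding a high calcium stimulation buffer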
[5] = biological target: T1, Methionyl-tRNA synthetase, putative (Trypanosoma brucei brucei, UniProt Q38C91); assay type: functional, Trypanosoma brucei brucei strain 927/4 GUTat10.1;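 further: Read-out by fluorescence polarization, run as a confirmatory high-throughput counterscreen; potency of MetRS inhibitors measured by reduced AMP formation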
T1 sequence (Q38C91 whole entry): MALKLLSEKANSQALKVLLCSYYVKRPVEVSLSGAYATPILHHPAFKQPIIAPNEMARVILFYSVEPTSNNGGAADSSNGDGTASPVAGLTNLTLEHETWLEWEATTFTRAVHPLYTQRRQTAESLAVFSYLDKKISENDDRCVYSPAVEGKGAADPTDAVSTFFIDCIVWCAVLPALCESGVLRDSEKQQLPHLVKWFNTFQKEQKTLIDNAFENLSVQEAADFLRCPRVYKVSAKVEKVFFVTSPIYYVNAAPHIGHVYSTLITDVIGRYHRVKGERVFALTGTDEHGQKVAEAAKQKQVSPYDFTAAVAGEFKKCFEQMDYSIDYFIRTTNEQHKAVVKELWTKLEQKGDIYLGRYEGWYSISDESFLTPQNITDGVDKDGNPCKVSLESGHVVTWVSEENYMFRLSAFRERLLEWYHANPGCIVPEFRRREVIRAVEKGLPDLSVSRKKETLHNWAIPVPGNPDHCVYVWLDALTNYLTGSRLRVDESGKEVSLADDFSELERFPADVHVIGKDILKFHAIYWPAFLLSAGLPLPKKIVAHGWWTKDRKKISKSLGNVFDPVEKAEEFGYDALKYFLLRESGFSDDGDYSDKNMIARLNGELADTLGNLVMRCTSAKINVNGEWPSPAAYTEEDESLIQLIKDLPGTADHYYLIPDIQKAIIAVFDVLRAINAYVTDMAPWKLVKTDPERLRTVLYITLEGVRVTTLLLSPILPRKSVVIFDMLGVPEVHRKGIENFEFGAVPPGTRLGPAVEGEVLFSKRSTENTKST

Beta-galactosidase = Beta-galactosidase (Escherichia coli, UniProt Q8VNN2); test: Dose response counterscreen for EBI2 assay utilizing the enzyme, b-galactosidase.; assay type: functional
[6] = biological target: Eukaryotic translation initiation factor 4E (Mus musculus, UniProt P63073); test: eIF4E–eIF4G protein interaction inhibitors, dose response, biochemical, TR-FRET (AID 855); assay type: functional;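 further: potency for disrupting eIF4E binding to eIF4GI seen as loss of FRET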
Cytochrome P450 3A4 = Cytochrome P450 3A4 (Homo sapiens, UniProt P08684);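 further: CYP3A4 tested as one member of a cytochrome P450 panel screen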
Cytochrome P450 2C9 = Cytochrome P450 2C9 (Homo sapiens, UniProt P11712)
Estrogen receptor beta [7] = biological target: T2, Estrogen receptor beta (Homo sapiens, UniProt Q92731);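 further: recombinant ER-beta bound to coactivator SRC1 peptide in presence of estradiol agonist; inhibitors block coactivator peptide binding and lower the FRET signal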
Estrogen receptor beta [8] = biological target: T2, Estrogen receptor beta; test: ERβ–SRC-3 coactivator interaction inhibitors, confirmation, orthogonal assay, biochemical, ELISA, streptavidin-HRP readout (AID 1060)
Estrogen receptor = biological target: T3, Estrogen receptor (Homo sapiens, UniProt P03372);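 further: potency for inhibiting coactivator peptide recruitment to the receptor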
T3 sequence (P03372 whole entry): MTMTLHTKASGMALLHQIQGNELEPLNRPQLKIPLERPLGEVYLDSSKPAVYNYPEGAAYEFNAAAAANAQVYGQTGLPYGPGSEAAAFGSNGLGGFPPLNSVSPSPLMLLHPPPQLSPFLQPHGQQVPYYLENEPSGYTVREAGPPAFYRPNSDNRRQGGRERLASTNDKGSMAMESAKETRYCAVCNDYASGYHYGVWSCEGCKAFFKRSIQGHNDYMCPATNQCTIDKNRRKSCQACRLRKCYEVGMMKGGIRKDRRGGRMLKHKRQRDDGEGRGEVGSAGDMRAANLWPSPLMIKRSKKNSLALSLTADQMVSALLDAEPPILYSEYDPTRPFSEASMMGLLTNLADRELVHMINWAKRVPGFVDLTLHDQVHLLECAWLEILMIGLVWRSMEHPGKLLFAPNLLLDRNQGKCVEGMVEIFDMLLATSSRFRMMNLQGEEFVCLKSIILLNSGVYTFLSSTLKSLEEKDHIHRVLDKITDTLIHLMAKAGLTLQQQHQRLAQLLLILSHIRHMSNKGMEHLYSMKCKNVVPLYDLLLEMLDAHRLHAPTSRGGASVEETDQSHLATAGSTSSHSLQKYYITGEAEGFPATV

[9] = inhibitors of Vif binding to APOBEC3G peptide, primary screen, biochemical, TR-FRET, GST-Vif 1-94, biotin-A3G peptide, dose response retest (AID 1117319); assay type: functional;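 further: TR-FRET signal of purified GST-Vif binding a biotinylated A3G peptide; inhibitors lower the FRET signal by blocking Vif and A3G binding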
[10] = biological target: DNA dC->dU-editing enzyme APOBEC-3G (Homo sapiens, UniProt Q9HC16); assay type: functional;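 further: Dose-response counterscreen measuring inhibition of APOBEC3G DNA deaminase activity, run while confirming APOBEC3A inhibitors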
[11] = biological target: DNA dC->dU-editing enzyme APOBEC-3A (Homo sapiens, UniProt P31941); test: Dose Response confirmation of small molecule APOBEC3A DNA Deaminase Inhibitors via a fluorescence-based single-stranded DNA deaminase assay. [Related pubchem assays (depositor defined):AID493011, AID493024]; assay type: functional
[12] = C. albicans growth with fluconazole, confirmation, fluorescence, retest (AID 2467); assay type: functional, cell-based
[13] = NIH-3T3 fibroblast cytotoxicity, dose response, cytotoxicity control, cell-based, fluorescence, Alamar Blue, secondary assay (AID 2327); assay type: functional;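 further: NIH-3T3 mouse fibroblasts cultured with fluconazole at 8 µg/mL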
[14] = HepG2 cell cytotoxicity, dose response, cytotoxicity control, plate reader, cherry-pick, antagonist series (AID 743416); assay type: functional, cell-based
[15] = MC4R antagonists, dose response, counter-screen for LGR2 antagonist project, cell-based, plate reader, cherry pick (AID 743444); assay type: functional;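 further: transfected HEK 293 cells stimulated with alpha-MSH peptide; potency of inhibitors of the alpha-MSH evoked signal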
[16] = LGR2 antagonists, dose response, cell-based, HEK293, CRE-luciferase reporter, cherry pick, set 2 (AID 743343); assay type: functional;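 further: transfected cells were stimulated with diluted bursicon conditioned medium after compound addition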
[17] = Counterscreen for inhibitors of Trypanosoma brucei methionyl tRNA synthetase (MetRS): Luminescence-based cell-based high throughput dose response assay to identify compounds that are cytotoxic to Jurkat human T lymphocyte cells.; assay type: functional
[18] = biological target: T4, DNA repair and recombination protein RAD54-like (Homo sapiens, UniProt Q92698); test: inhibitors of human RAD54 branch migration, confirmation, biochemical, fluorescence, cherry-picked samples, dose series (AID 651657); assay type: functional
T4 sequence (Q92698 whole entry): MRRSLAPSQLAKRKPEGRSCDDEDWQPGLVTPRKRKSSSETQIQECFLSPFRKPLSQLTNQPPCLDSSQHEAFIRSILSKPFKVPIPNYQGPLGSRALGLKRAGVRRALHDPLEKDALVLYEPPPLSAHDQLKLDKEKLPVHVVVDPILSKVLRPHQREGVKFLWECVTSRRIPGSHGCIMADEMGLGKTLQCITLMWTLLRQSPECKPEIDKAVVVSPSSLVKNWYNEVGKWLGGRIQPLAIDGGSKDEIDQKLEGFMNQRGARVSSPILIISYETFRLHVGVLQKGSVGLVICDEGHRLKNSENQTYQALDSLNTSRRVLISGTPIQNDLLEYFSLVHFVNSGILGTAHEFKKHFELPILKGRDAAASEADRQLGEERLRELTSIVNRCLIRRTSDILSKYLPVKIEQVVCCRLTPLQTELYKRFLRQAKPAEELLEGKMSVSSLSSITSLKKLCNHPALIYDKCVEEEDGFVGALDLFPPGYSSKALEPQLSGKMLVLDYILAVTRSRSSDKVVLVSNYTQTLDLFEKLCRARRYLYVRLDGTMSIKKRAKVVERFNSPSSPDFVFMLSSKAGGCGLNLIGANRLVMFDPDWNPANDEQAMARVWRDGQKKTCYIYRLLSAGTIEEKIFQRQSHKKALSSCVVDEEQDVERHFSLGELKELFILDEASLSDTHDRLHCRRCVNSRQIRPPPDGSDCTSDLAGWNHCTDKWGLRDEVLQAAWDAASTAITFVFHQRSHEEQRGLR

[19] = biological target: T5, Ubiquitin-conjugating enzyme E2 N (Homo sapiens, UniProt P61088); assay type: functional;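 further: Dose-response confirmation in a TR-FRET assay detecting UBC13-driven polyubiquitin chain formation, inhibition measured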
T5 sequence (P61088 whole entry): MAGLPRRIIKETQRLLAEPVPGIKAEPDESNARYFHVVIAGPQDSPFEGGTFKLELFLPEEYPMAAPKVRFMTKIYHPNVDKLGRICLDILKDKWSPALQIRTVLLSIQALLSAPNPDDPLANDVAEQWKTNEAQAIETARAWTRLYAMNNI

[20] = biological target: T6, DNA repair protein RAD52 homolog (Homo sapiens, UniProt P43351); assay type: functional, biochemical
T6 sequence (P43351 whole entry): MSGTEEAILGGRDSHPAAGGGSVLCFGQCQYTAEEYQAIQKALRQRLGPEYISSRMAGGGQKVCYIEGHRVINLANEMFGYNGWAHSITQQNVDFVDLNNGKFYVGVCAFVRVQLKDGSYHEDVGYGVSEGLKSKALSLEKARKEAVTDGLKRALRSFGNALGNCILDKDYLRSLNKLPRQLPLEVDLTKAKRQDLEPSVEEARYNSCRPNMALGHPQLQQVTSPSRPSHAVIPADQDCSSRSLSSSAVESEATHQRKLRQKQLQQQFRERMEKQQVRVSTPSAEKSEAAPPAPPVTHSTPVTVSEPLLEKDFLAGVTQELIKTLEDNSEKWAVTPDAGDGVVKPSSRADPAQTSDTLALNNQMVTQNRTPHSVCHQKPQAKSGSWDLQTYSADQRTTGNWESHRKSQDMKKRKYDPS

Cytochrome P450 3A4, sequence (P08684 whole entry): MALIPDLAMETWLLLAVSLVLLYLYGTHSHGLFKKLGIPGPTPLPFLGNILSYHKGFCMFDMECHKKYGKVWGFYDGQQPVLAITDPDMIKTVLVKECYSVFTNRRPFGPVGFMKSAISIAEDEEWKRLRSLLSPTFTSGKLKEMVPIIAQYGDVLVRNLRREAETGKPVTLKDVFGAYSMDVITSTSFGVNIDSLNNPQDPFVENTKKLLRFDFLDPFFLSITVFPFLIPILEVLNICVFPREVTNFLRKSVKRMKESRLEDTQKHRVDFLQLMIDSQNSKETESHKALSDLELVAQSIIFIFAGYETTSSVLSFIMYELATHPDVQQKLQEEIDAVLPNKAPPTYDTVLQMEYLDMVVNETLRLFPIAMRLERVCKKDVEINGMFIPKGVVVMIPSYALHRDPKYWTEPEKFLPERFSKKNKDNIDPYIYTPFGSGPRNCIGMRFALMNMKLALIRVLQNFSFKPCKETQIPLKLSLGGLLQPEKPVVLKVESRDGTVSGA
Peroxisome proliferator-activated receptor gamma/Nuclear receptor coactivator 1, sequence (P37231 whole entry): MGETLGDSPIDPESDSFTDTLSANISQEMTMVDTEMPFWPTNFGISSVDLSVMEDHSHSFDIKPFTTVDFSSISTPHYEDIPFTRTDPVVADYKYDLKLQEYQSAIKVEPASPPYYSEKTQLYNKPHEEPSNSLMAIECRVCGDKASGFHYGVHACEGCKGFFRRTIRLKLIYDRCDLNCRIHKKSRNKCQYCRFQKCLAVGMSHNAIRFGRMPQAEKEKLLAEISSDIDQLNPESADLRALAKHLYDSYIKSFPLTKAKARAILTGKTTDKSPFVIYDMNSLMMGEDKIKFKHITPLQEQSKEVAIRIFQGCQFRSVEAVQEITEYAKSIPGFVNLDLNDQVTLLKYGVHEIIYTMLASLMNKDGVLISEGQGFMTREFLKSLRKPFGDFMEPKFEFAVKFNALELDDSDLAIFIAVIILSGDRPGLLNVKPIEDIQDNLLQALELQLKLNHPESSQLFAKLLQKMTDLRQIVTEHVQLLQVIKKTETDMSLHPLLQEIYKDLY
Peroxisome proliferator-activated receptor gamma/Nuclear receptor coactivator 1, sequence (Q15788 whole entry, further chain): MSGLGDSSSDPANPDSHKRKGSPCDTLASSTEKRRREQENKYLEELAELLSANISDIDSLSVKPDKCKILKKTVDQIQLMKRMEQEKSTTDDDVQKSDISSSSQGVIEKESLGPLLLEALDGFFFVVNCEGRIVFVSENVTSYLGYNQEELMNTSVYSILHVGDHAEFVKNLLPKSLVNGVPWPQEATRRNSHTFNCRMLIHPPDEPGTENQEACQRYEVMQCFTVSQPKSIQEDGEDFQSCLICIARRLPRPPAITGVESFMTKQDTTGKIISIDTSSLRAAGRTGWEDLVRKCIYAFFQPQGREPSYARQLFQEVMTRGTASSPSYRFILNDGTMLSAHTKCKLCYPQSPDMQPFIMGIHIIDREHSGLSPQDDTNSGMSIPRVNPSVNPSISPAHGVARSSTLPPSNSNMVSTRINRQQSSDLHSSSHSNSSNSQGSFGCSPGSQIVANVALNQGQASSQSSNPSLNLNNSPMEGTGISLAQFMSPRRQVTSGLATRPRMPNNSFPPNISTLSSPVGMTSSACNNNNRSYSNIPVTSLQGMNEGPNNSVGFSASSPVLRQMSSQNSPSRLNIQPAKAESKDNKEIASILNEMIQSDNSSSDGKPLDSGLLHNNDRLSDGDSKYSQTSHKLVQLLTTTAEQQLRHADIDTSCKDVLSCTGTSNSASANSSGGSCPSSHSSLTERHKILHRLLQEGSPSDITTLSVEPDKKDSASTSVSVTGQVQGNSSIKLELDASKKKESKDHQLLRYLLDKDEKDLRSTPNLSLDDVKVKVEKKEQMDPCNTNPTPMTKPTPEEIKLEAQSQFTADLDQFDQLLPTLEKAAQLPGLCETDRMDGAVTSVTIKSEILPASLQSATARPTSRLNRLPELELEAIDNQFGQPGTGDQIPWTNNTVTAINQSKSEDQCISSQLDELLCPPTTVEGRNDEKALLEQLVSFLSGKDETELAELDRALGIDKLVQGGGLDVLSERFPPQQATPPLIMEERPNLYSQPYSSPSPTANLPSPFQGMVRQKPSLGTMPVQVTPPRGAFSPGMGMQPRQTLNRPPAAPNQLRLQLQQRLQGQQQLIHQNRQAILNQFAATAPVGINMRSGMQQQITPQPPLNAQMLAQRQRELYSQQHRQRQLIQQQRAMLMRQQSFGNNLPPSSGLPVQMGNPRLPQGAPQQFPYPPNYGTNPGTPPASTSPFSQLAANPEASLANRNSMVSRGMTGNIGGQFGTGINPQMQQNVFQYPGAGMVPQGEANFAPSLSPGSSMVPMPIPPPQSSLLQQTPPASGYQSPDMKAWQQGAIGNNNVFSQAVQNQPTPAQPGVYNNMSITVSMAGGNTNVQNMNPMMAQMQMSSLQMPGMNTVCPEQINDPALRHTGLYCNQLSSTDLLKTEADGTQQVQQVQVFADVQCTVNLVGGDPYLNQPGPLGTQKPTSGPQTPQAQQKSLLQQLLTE
Peroxisome proliferator-activated receptor gamma/Nuclear receptor coactivator 3, sequence (P37231 whole entry): as the sequence (P37231 whole entry) above
Peroxisome proliferator-activated receptor gamma/Nuclear receptor coactivator 3, sequence (Q9Y6Q9 whole entry, further chain): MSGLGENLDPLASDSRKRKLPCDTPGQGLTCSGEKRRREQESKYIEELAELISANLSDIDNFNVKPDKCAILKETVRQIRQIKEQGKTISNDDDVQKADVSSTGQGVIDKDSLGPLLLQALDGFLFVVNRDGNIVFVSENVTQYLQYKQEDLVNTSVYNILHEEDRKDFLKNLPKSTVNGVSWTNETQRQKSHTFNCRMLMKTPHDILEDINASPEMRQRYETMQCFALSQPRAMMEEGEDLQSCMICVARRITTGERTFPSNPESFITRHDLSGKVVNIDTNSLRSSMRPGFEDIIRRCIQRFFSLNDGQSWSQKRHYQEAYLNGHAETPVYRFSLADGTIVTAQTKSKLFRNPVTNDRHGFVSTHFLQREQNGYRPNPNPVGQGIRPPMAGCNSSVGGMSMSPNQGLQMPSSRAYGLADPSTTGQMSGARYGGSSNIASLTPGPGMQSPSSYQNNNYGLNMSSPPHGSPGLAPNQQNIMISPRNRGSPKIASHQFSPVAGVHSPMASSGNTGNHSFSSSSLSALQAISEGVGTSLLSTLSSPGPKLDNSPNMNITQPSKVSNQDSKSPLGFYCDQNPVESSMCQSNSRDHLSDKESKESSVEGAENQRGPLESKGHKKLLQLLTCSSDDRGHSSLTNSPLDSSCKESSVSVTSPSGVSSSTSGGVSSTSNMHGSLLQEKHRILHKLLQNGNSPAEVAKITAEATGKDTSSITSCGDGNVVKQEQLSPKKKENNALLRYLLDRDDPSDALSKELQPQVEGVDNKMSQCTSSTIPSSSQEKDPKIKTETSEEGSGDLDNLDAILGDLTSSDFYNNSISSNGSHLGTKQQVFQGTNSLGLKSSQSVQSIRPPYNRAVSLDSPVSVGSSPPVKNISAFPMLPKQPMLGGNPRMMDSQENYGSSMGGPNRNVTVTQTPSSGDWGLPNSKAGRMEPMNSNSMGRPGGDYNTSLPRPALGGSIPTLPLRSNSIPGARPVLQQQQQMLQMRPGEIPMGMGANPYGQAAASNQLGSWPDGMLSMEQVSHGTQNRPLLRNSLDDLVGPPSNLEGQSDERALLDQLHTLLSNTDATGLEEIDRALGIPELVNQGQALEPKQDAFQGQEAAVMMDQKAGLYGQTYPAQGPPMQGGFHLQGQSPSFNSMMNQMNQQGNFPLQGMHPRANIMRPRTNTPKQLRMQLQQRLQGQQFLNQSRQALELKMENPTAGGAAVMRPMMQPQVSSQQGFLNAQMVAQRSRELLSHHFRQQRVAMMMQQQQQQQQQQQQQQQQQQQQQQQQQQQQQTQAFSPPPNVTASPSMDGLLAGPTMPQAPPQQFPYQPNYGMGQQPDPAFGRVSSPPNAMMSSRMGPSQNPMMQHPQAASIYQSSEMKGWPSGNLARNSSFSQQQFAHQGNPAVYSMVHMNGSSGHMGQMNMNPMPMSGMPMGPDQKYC
T2 sequence (Q92731 whole entry): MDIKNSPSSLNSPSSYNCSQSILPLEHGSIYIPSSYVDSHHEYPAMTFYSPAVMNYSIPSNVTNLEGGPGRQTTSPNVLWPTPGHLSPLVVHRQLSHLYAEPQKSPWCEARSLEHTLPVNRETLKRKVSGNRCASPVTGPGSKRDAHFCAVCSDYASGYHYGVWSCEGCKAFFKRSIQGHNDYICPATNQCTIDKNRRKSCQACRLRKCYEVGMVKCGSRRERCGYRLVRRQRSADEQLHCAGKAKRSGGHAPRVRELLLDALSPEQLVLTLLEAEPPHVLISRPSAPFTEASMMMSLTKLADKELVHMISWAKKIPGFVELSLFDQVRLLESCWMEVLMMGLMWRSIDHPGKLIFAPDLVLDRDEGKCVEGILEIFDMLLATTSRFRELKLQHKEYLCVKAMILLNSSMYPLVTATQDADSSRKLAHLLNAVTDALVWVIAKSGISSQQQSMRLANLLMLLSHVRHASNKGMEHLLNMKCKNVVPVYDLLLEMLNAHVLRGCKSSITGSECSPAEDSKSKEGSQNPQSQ

With CCOC(=O)c1sc(NC(=O)CSc2nnnn2-c2ccc(C)c(C)c2)nc1C the EC50 [1] was 77.4 µM (not active), the EC50 [2] was > 79.4 µM (not active) and the EC50 [3] was > 79.4 µM (not active).

With CCOC(=O)c1s/c(=N\C(=O)c2cccc(OC)c2)n(C)c1C the EC50 [1] was 10.5 µM (not active), the EC50 [2] was 15.2 µM (not active) and the EC50 [3] was 11 µM (not active).

In the case of CCN(CC)S(=O)(=O)c1ccc(C(=O)NCCSc2c[nH]c3ccccc23)cc1, the EC50 [4] is reported as 3.87 µM (active).

With O=C(CCCOc1ccccc1)N1CCN(c2ccccc2)CC1 the EC50 [4] was 13.9 µM (active).

With Fc1ccccc1CSc1nc2ncc(Br)cc2[nH]1 the EC50 [1] was 24.2 µM (not active), the IC50 [5] was 82.2 µM (inactive) and the EC50 [2] was 49.5 µM (not active). The EC50 [3] was 36.8 µM (not active).

In the case of Cc1[nH]c(-c2ccc(F)cc2)cc1C(=O)N1CCN(c2ccccc2F)CC1, the IC50 (Beta-galactosidase) is reported as > 80 µM (inactive).

For Cc1ccc(N2C(=O)c3ccccc3C2(O)c2ncc[nH]2)cc1 (stereo not given), the IC50 [6] was > 64 µM (inactive).

With O=C(COc1ccc(Br)cc1)N1CCC(c2ccccc2)C1 (stereo not given) the AC50 (Cytochrome P450 3A4) was 28.2 µM (inconclusive) and the IC50 (Beta-galactosidase) was > 80 µM (inactive).

With O=C1NC(c2ccc(Br)cc2)Nc2sc3c(c21)CCC3 (stereo not given) the AC50 (Cytochrome P450 3A4) was 28.2 µM (inconclusive), the AC50 (Cytochrome P450 2C9) was 6.31 µM (inconclusive) and the IC50 (Estrogen receptor beta [7]) was > 50 µM (not active). The IC50 (Estrogen receptor beta [8]) was < 0.023 µM (not active) and the IC50 (Estrogen receptor) was 19.4 µM (active).

With Cc1ccc(C(C)C)c(OCCN(C)C)c1 the IC50 [9] was > 100 µM (active).

For CC1=CCC(/C=N\Nc2n[nH]c3c4ccccc4nc-3n2)CC1 (stereo not given), the IC50 [9] was > 100 µM (active).

In the case of Cc1ccc(C)c(SCC(=O)OCC(=O)c2ccco2)c1, the IC50 (Estrogen receptor beta [7]) is reported as 6.74 µM (active), the IC50 (Estrogen receptor beta [8]) is reported as 0.0912 µM (not active) and the IC50 (Estrogen receptor) is reported as > 50 µM (not active). The IC50 [10] was 46.3 µM (active) and the IC50 [11] was 18 µM (active).

With O=C(/C=C/c1ccc(F)cc1)N1CCN(c2ccccn2)CC1 the EC50 [12] was 2.94 µM (active), the IC50 (Beta-galactosidase) was > 80 µM (inactive) and the EC50 [13] was > 160 µM (inactive).

With CC1CCCN(c2ncnc3c2cnn3-c2ccccc2)C1 (stereo not given) the AC50 [14] was > 52 µM (inactive), the AC50 [15] was 6.32 µM (active) and the AC50 [16] was 2.89 µM (active).

For CCn1c(CSc2nc3ccccc3s2)nc2ccccc21, the EC50 [4] was 5.73 µM (active).

In the case of CC(C)n1c(CCC(=O)O)ccc1-c1ccccc1, the IC50 [9] is reported as > 100 µM (active).

For Cc1csc(CNc2ncnc3ccc(-c4ccccc4Cl)cc23)c1, the IC50 [5] was 97.8 µM (inactive) and the IC50 [17] was 83.3 µM (inactive).

For O=C1C=C(Nc2ccc(Cl)cc2)CC(c2ccc(Cl)cc2)C1 (stereo not given), the AC50 (Cytochrome P450 3A4) was 20 µM (inconclusive) and the IC50 (Beta-galactosidase) was > 80 µM (inactive).

In the case of CCN(CC)CCN(Cc1cc2cc3c(cc2[nH]c1=O)OCCO3)C(=O)NC1CCCCC1, the EC50 [1] is reported as > 79.4 µM (not active), the EC50 [2] is reported as > 79.4 µM (not active) and the EC50 [3] is reported as > 79.4 µM (not active).

For CCCCN(CC)CCNC(=O)c1cc2c(=O)n(C)c3ccccc3c2n1C, the AC50 [18] was 32.3 µM (active) and the IC50 [19] was > 20 µM (inactive).

For N=c1c(C(=O)NCCN2CCOCC2)cc2c(=O)n3ccccc3nc2n1CCCN1CCOCC1, the AC50 [18] was 11.5 µM (active) and the AC50 [20] was 5.36 µM (active).

With CCCCCCCCCC(=O)N/N=C/c1ccc(C)s1 the IC50 [6] was > 64 µM (inactive).

With O=C(Nc1nc(-c2cccs2)cs1)c1cccc(S(=O)(=O)N2CCCCC2)c1 the EC50 [4] was 4.13 µM (active).

With CCOC(=O)CN1C(=O)C(Sc2n[nH]c(-c3ccccc3)n2)CCc2ccccc21 (stereo not given) the IC50 [9] was > 100 µM (active).
